# Laboratory results taken from US6458769B1, “Amorphous compound” (AstraZeneca AB, priority 2001, dated 2002).
# Key:
# [1] = Solubility determination by titrating deionised water, assessed visually; format: physicochemical; conditions: visual, lower limit = soluble, upper limit = undissolved material present
# Procedure: Solubility was assessed using known quantities (approx 1 mg) and titrating small volumes (2-40 microlitres) of deionised water and assessed visually. The data given are ranges. The lower limit represents soluble and upper limit the presence of undissolved material.
# [2] = literature value, Ip et al. 1992; cited from earlier work
# [3] = Differential Scanning Calorimetry (DSC) glass transition; format: physicochemical; conditions: dry amorphous lisinopril, anomalous endotherm
# Procedure: Differential Scanning Calorimetry (DSC) was performed on approximately 0.5-3 mg sample, using a Mettler DSC820 instrument, according to standard methods, for example those described in Hohne et al. (1996) Differential scanning Calorimetry, Springer, Berlin.
# [4] = Thermal Mechanical Analysis (TMA) glass transition point; format: physicochemical; conditions: compressed pellet, heating rate 10° C./min, 30-160° C.
# Procedure: The method involves compressing 140 mg of material in a punch and die (3 mm) to 2 KN. The compressed pellet was then placed on the TMA and the 1.1 mm probe placed on the top face. A heating rate of 10° C./min was used and the sample was heated from 30-160° C.
# [5] = cited from earlier work
compound,measurement,setting,value
"NCCCC[C@H](NC(CCc1ccccc1)C(=O)O)C(=O)N1CCC[C@H]1C(=O)O (stereo partly drawn) [Dihydrate, (S)-1-[N^2-(1-carboxy-3-phenylpropyl]-L-lysyl]-L-proline]",solubility,[1],60 to 65 mg/mL
same,Reference solubility (mg/ml),[2],97^1 mg/ml
"NCCCC[C@H](NC(CCc1ccccc1)C(=O)O)C(=O)N1CCC[C@H]1C(=O)O (stereo partly drawn) [amorphous lisinopril, (S)-1-[N^2-(1-carboxy-3-phenylpropyl]-L-lysyl]-L-proline]",solubility,[1]; listed as Amorphous,900 to 1250 mg/mL
same,glass transition temperature (Tg) by DSC,[3],125 °C
same,glass transition temperature by TMA,[4],129 °C
"NCCCC[C@H](NC(CCc1ccccc1)C(=O)O)C(=O)N1CCC[C@H]1C(=O)O (stereo partly drawn) [lisinopril, (S)-1-[N^2-(1-carboxy-3-phenylpropyl]-L-lysyl]-L-proline]",effective half-life of accumulation,[5]; multiple dosing,about 12.6 hours
same,time to peak serum concentrations,[5]; oral administration,≤ 7 h
